According to patent US20190365843A1, “Antimicrobial Activity of Bioactive Compounds and Their Derivatives” (priority 2018, published 2019):

Legend:
Aeromonas sp. = assay: Agar diffusion growth inhibition zone, Aeromonas sp.; assay type: cell-based, Aeromonas species; details: Aeromonas sp.; 100 mg; 6 mm = no activity
Description: (§1) Among the bacterial agents tested Gram positive and Gram negative bacterial groups represented by Staphylococcus aureus and Enterococcus species and pathogenic members of Enterobacteriaceae, Vibronaceae, Aeromonadaceae, Pseudomonadaceae were tested. Freshly sub-cultured bacterial strains were inoculated into peptone water and incubated for 4 hours at 37° C. and adjusted to a turbidity of 0.5 (Gram Negative Bacilli), 1 (Gram Positive Cocci) and 4 (Pus cells, GNB, & few Budding yeast cells) Mc Farland standards (10^8 CFU/ml) respectively.
(§2) The different bioactive compounds and their derivatives were dissolved and diluted with solvents (DMSO), number of subsequent dilutions was performed to obtain different concentrations of the bioactive compounds and their derivatives. (Working Concentrations).
(§3) Agar well diffusion method is widely used to evaluate the antimicrobial activity of plants or other synthetic products. The suspension (microbial inoculum) was used to inoculate into Muller Hinton Agar Petri plates by lawn culture. Well (diameter 6 mm) were punched in the agar by sterile borer and filled with 50 μl of dissolved extracts. Plates were incubated in incubator at 37° C. for 24 hours and measured the growth inhibition zone diameters in mm compared with that of control (DMSO) showing no growth.
(§4) The bioactive compounds were tested with desired concentrations in 6 mm filter paper discs (Whatman, no. 3) were impregnated with 10 μL of each of the different dilutions. The discs were allowed to remain at room temperature until complete diluent evaporation and kept under refrigeration until ready to be used. 10 μL of diluents used to products were used as control. Tests were performed by Agar disk-diffusion testing method, which is the official method used in many clinical microbiology laboratories for routine antimicrobial susceptibility testing.
(§5) Similar to the procedure used in Agar well diffusion method, the suspension (microbial inoculum) was used to inoculate into Muller Hinton Agar Petri plates by lawn culture. Then, filter paper discs (about 6 mm in diameter), containing the test compound at a desired concentration, were placed on the agar surface. The Petri dishes were incubated under suitable incubation conditions.
(§6) Bioactive compounds showing zone of inhibition beyond the size of 6 mm are considered to be having an anti-microbial activity.

E. coli ATCC 25922 = assay: Agar diffusion growth inhibition zone, E. coli ATCC 25922; assay type: cell-based; details: Escherichia coli, ATCC25922, 100 mg, 6 mm = no activity
Description: as §1, §2, §3, §4, §5, §6

Candida abicans = assay: Agar diffusion growth inhibition zone, Candida abicans; assay type: cell-based, Candida albicans; details: 100 mg, 6 mm = no activity
Description: as §1, §2, §3, §4, §5, §6

Klebsiella sp. = assay: Agar diffusion growth inhibition zone, Klebsiella sp.; assay type: cell-based, Klebsiella species; details: 100 mg, 6 mm = no activity
Description: as §1, §2, §3, §4, §5, §6

Citrobacter sp. = assay: Agar diffusion growth inhibition zone, Citrobacter sp.; assay type: cell-based, Citrobacter species; details: 100 mg, 6 mm = no activity
Description: as §1, §2, §3, §4, §5, §6

Pleisiomonas sp. = assay: Agar diffusion growth inhibition zone, Pleisiomonas sp.; assay type: cell-based, Pleisiomonas species; details: for zone of inhibition at 100 mg/mL: Pleisiomonas sp., 6 mm = no activity; for inhibition of growth: Plesiomonas species
Description: as §1, §2, §3, §4, §5, §6

EAEC = assay: Agar diffusion growth inhibition zone, EAEC; assay type: cell-based, Enteroaggregative E. coli; details: Escherichia coli, 100 mg, 6 mm = no activity
Description: as §1, §2, §3, §4, §5, §6

S. aureus = assay: Agar diffusion growth inhibition zone, S. aureus; assay type: cell-based, Staphylococcus aureus; details: Staphylococcus aureus, 100 mg, 6 mm = no activity
Description: as §1, §2, §3, §4, §5, §6

Shigella sp. = assay: Agar diffusion growth inhibition zone, Shigella sp.; assay type: cell-based, Shigella species; details: Shigella
Pseudomonas sp. = assay: Agar diffusion growth inhibition zone, Pseudomonas sp.; assay type: cell-based, Pseudomonas species; details: Pseudomonas
Enterococcus sp. = assay: Agar diffusion growth inhibition zone, Enterococcus sp.; assay type: cell-based, Enterococcus species; details: 100 mg, 6 mm = no activity
Description: as §1, §2, §3, §4, §5, §6

Vibrio cholera = assay: Agar diffusion growth inhibition zone, Vibrio cholera; assay type: cell-based, Vibrio cholerae; details: Vibrio cholerae
Description: Agar well diffusion method is widely used to evaluate the antimicrobial activity of plants or other synthetic products. The suspension (microbial inoculum) was used to inoculate into Muller Hinton Agar Petri plates by lawn culture. Well (diameter 6 mm) were punched in the agar by sterile borer and filled with 50 μl of dissolved extracts. Plates were incubated in incubator at 37° C. for 24 hours and measured the growth inhibition zone diameters in mm compared with that of control (DMSO) showing no growth. The antimicrobial agent diffuses in the agar medium and inhibits the growth of the microbial strain tested (Valgas et al., (2016) Methods for in vitro evaluating antimicrobial activity: A review. Journal of Pharmaceutical Analysis. 6(2):71-9).
Similar to the procedure used in Agar well diffusion method, the suspension (microbial inoculum) was used to inoculate into Muller Hinton Agar Petri plates by lawn culture. Then, filter paper discs (about 6 mm in diameter), containing the test compound at a desired concentration, were placed on the agar surface. The Petri dishes were incubated under suitable incubation conditions. Generally, antimicrobial agent diffuses into the agar and inhibits germination and growth of the test microorganism and then the diameters of inhibition growth zones are measured (Valgas et al., (2007) Screening methods to determine antibacterial activity of natural products. Brazilian Journal of Microbiology. 38:369-80; Balouiri M et al., (2016) Methods for in vitro evaluating antimicrobial activity: A review. Journal of Pharmaceutical Analysis. 6(2):71-9).

Salmonella typhimurium = assay: Agar diffusion growth inhibition zone, Salmonella typhimurium; assay type: cell-based; details: Salmonella enterica, 100 mg, 6 mm = no activity
Description: as §1, §2, §3, §4, §5, §6

COc1cc(/C=C/C(=O)COC(=O)/C=C/c2ccc(O)cc2)ccc1O [compound 11, Demethoxycalebin- A1]
zone of inhibition at 100 mg/mL (Aeromonas sp.): 6 mm | zone of inhibition at 100 mg/mL (E. coli ATCC 25922): 6 mm | zone of inhibition at 100 mg/mL (Candida abicans): 6 mm | zone of inhibition at 100 mg/mL (Klebsiella sp.): 6 mm | zone of inhibition at 100 mg/mL (Citrobacter sp.): 6 mm | zone of inhibition at 100 mg/mL (Pleisiomonas sp.): 6 mm | zone of inhibition at 100 mg/mL (EAEC): 6 mm | zone of inhibition at 100 mg/mL (S. aureus): 6 mm | zone of inhibition at 100000 µg/disc (Shigella sp.): 6 mm | zone of inhibition at 100000 µg/disc (Pseudomonas sp.): 6 mm | zone of inhibition at 100 mg/mL (Enterococcus sp.): 6 mm | zone of inhibition at 100000 µg/disc (Vibrio cholera): 6 mm | zone of inhibition at 100 mg/mL (Salmonella typhimurium): 6 mm

COc1cc(/C=C/C(=O)OCC(=O)/C=C/c2ccc(O)cc2)ccc1O [compound 12, Demethoxycalebin- A2]
zone of inhibition at 100 mg/mL (Aeromonas sp.): 6 mm | zone of inhibition at 100 mg/mL (E. coli ATCC 25922): 6 mm | zone of inhibition at 100 mg/mL (Candida abicans): 6 mm | zone of inhibition at 100 mg/mL (Klebsiella sp.): 6 mm | zone of inhibition at 100 mg/mL (Citrobacter sp.): 6 mm | zone of inhibition at 100 mg/mL (Pleisiomonas sp.): 10 mm | zone of inhibition at 100 mg/mL (EAEC): 6 mm | zone of inhibition at 100 mg/mL (S. aureus): 6 mm | zone of inhibition at 100000 µg/disc (Shigella sp.): 6 mm | zone of inhibition at 100000 µg/disc (Pseudomonas sp.): 6 mm | zone of inhibition at 100 mg/mL (Enterococcus sp.): 6 mm | zone of inhibition at 100000 µg/disc (Vibrio cholera): 6 mm | zone of inhibition at 100 mg/mL (Salmonella typhimurium): 6 mm

O=C(/C=C/c1ccc(O)cc1)COC(=O)/C=C/c1ccc(O)cc1 [compound 13, Bisdemethoxycalebin- A]
zone of inhibition at 100 mg/mL (Aeromonas sp.): 6 mm | zone of inhibition at 100 mg/mL (E. coli ATCC 25922): 6 mm | zone of inhibition at 100 mg/mL (Candida abicans): 6 mm | zone of inhibition at 100 mg/mL (Klebsiella sp.): 6 mm | zone of inhibition at 100 mg/mL (Citrobacter sp.): 6 mm | zone of inhibition at 100 mg/mL (Pleisiomonas sp.): 9 mm | inhibition of growth (Pleisiomonas sp.): inhibited | zone of inhibition at 100 mg/mL (EAEC): 6 mm | zone of inhibition at 100 mg/mL (S. aureus): 6 mm | zone of inhibition at 100000 µg/disc (Shigella sp.): 6 mm | zone of inhibition at 100000 µg/disc (Pseudomonas sp.): 6 mm | zone of inhibition at 100 mg/mL (Enterococcus sp.): 6 mm | zone of inhibition at 100000 µg/disc (Vibrio cholera): 6 mm | zone of inhibition at 100 mg/mL (Salmonella typhimurium): 6 mm

Demethoxycalebin-A
inhibition of growth (Pleisiomonas sp.): inhibited
